The assay concerns Male NMRI (SPF) mice fed a low-iron diet. Nature of the assay: Fe utilization in iron-deficient mouse model. Type of assay: in vivo. The method, then: The excellent Fe utilizations that can be accomplished through the Fe complexes according to the invention were measured by means of the following mouse model.
Male NMRI (SPF) mice (approximately 3 weeks old) were fed a low-iron diet (approx. 5 ppm iron) for approximately 3 weeks. The iron complexes were then administered to them by means of a stomach tube (2 mg iron/kg body weight/day) for 2 times 5 days, with an interruption of 2 days (days 1-5 and 8-12). Utilization on day 15 was calculated from the hemoglobin increase and the body weight increase in accordance with the formula
[formula] • 0.07=Factor for 70 ml blood per kg body weight (BW) • 0.0034=Factor for 0.0034 g Fe/g Hb • Hb1=Hemoglobin level (g/I) on day 1 • Hb2(3)=Hemoglobin level (g/I) on day 8 (or 15) • BW4=body weight (g) on day 1 • BW9(14)=body weight (g) on day 8 (or 15) • Hb1 Control=average hemoglobin level (g/I) on day 1 in the control group, • Hb2(3) Control=average hemoglobin level (g/I) on day 8 (or 15) in the control group, • BW4 Control=average body weight (g) on day 1 in the control group, • BW9(14) Control=average body weight (g) on day 8 (or 15) in the control group, • Fe Dos.=entire administered iron (mg Fe) over 5 or 10 days, • Fe ut.=(Hb2(3)*BW9(14)-Hb1*BW4)*0.07*0.0034 (mg Fe) Δ Utilization=Fe tot. utilized (examined group)—Fe ut. Control group, utilized from food, (mg Fe)

In the case of “Tris-(N-(1-hydroxy-2-methylpropan-2-yl)-3-oxobutanamide)-iron(III)-complex [Example 41]”, for the setting “male NMRI mice on low-iron diet (approx. 5 ppm iron), 2 mg iron/kg body weight/day by stomach tube, days 1-5 and 8-12, utilization on day 15 calculated from hemoglobin and body weight increase versus control group”, the “Utilization n 15 d (abs. %)” value is 68 abs. %.

With “Tris-(N-(2-hydroxyethyl)-3-oxobutanamide)-iron(III)-complex [Example 37]”, the “Utilization n 15 d (abs. %)” value (mouse, in vivo) was 34 abs. %.
